Measurements reported in US12691114B2, “Compositions for inhibition of herpesviruses” (The Medical College of Wisconsin, Inc., priority 2020, dated 2026).
Where two headings read alike, the source gives them in different places.

Assays:
[1] = test system: HCMV Towne; assay: Add-on and removal assays, luciferase at 72 hpi; assay type: cell-based, human cytomegalovirus; details: for stage of maximal activity during HCMV replication, in words: add-on and removal assays; for add-on assay result, in words: compound added at times after infection; for add-on assay result, in words / removal assay result, in words: luciferase 72 hpi; for removal assay result, in words: compound removed at times after infection
Experimental: Add-on and removal assays: These assays were performed to identify at which stage during HCMV replication the compounds had maximal activity. In the add-on group, compounds were added to infected HFFs at 0, 6, 24, and 48 hpi, and luciferase activity was measured at 72 hpi. In the removal group, compounds were added immediately after virus infection and were subsequently removed after 0, 6, 24, and 48 h; luciferase was measured at 72 hpi.
Timing of HCMV inhibition: Add-on and removal assays were performed. Compounds were added or removed at 0, 6, 12, 24, 36 and 48 hpi, and luciferase activity was measured at 72 hpi.

[2] = test system: HCMV TB40; assay: Drug combination with letermovir, plaque assay TB40, Bliss model; assay type: cell-based, human cytomegalovirus; details: read-out: EC50 (μM) of Compound 2
Experimental: Drug combination and analysis: These experiments were performed as previously reported^40. The combination of GCV and each compound was tested using the pp28-luciferase. Briefly, 2×10^6 HFFs/plate were seeded in 96-well plates and infected with the pp28-luciferase Towne HCMV strain (MOI=1). First, a dose response curve was generated for each drug individually to determine its EC50. Then, drugs were combined at twice their EC50, diluted in DMEM with 4% FBS, followed by serial dilution and added together after infection. Luciferase activity of the combination and each drug individually was quantified at 72 hpi. The combination of letermovir and each of the new compounds was tested by the plaque assay using TB40. The same principle applied in this assay for the drug combination effect, and plaques were counted at 8 dpi. The Bliss model was used to calculate the effect of each drug combination on pp28-luciferase activity and plaque reduction. In this model, drug combination represents the product of two probabilistically independent events as described in the following equation^41.
[formula] Where D is the drug concentration, m is the slope, and EC50 is the effective concentration resulting in 50% virus inhibition. The combined effect of two inhibitors (Fu, fractional unaffected) is computed as the product of individual effects of the two inhibitors, Fu1 and Fu2. If the ratio of observed fold inhibition divided by the expected fold inhibition is greater than 1, the compounds are synergistic. If the ratio is less than 1, the combination is considered antagonistic, and if it equals to 1 the combination is additive.
Pattern of drug combination with GCV and letermovir: The effect of each compound alone or in combination with GCV or letermovir was tested in HCMV-infected HFFs. […] A ratio of observed fold inhibition divided by the expected fold inhibition of >1 was considered drug synergy, <1 as drug antagonism, and =1 as additive. For letermovir and its combination with each of the five compounds the EC50 was determined based on plaque assay. The combination of GCV and 2955 was also tested by plaque assay. All other combinations and Bliss coefficients were measured by pp28- luciferase.

[3] = test system: HCMV Towne DNA; assay: Viral DNA by US17 real-time PCR in cells and supernatants; assay type: cell-based, human cytomegalovirus; details: Towne MOI=0.1; NFU1827 5 μM, MLS8554 2 μM, MLS8091 1.5 μM, 2955 3 μM, GCV 5 μM
From the text: DNA isolation and quantitative real-time (qPCR): Total DNA was isolated from non-infected control, and HCMV-infected HFFs using Wizard SV genomic DNA isolation kit (Promega, Madison, WI). To determine viral load in the supernatant, total DNA was isolated from supernatants using automated DNA extraction on the BioRobot M48 instrument (Qiagen, Valencia, CA). A US17 real-time PCR assay which targets 151-bp from the highly conserved US17 region of the CMV genome was used^39. The primers and probe for US17 are: […]

[4] = test system: GCV-resistant HCMV Towne (C607Y mutation in UL97); assay: microbe, parasite or virus in culture; assay type: cell-based, human cytomegalovirus
From the text: (§1) A GCV-resistant HCMV pp28-luciferase that contains a C607Y mutation in UL97 was reported^37. The HCMV TB40 strain was obtained from ATCC (VR-1578). Clinical isolates of Human Herpesvirus 1 and 2 (HSV1, HSV2) were collected from the Johns Hopkins Microbiology laboratory without identifiers that could link them to a specific patient. Mouse CMV (MCMV) Smith strain (ATCC VR-1399) was used for infection of MEFs.
(§2) Luciferase activity: Cell lysates were collected at 72 hpi and luciferase activity was determined using the Glomax-Multi+Detection System (Promega, Madison, WI) as described previously^20.
(§3) HCMV inhibition was measured by luciferase activity of pp28-recombinant Towne and pp28 GCV-resistant Towne strains of HCMV (72 hpi) and by plaque reduction using HCMV Towne or TB40 (10 days). Viral protein expression was measured by Western blot.

[5] = test system: HCMV Towne (pp28-luciferase); assay: pp28-luciferase HCMV Towne assay in HFFs, luciferase activity at 72 hpi; assay type: cell-based, human cytomegalovirus
From the text: as §1, §2, §3

[6] = test system: HCMV TB40; assay: Plaque reduction assay, HCMV TB40 in HFFs; assay type: cell-based, human cytomegalovirus; details: 10 days
Experimental: (§4) Plaque reduction assay: HFFs were seeded into 12-well plates (2×10^5 cells/well) and infected with HCMV TB40 at approximately 100 plaques/well. After 90 min, media were aspirated, and DMEM containing 0.5% carboxymethyl-cellulose (CMC), 4% fetal bovine serum (FBS), and drugs were added into duplicate wells. Following incubation at 37° C. for 10-12 days the overlay was removed, and plaques were counted after crystal violet staining. For HSV1 and HSV2 replication in Vero cells, the adsorption time was 60 min and plaques were counted after 36 h. Plaque assays in MEFs were completed after 3 days.
Viral protein expression was measured by Western blot.

[7] = test system: HSV1 clinical isolate; assay: Plaque reduction assay, HSV1 in Vero cells; assay type: cell-based, Human Herpesvirus 1; details: plaque reduction
From the text: as §1, with “Viruses and antiviral assays: A recombinant pp28-luciferase Towne HCMV strain expressing luciferase under the control of the UL99 (pp28) late promoter was reported to provide a highly-sensitive and reproducible reporter for drug screening^20. A GCV-resistant” for “A GCV-resistant”
as §4
(§5) Inhibition of other herpesviruses: Inhibition of herpes simplex 1 and 2 (HSV1, HSV2), Epstein Barr virus (EBV) and mouse CMV (MCMV) was tested with the five compounds. Plaque reductions assays were used for HSV1, HSV2 and MCMV. Inhibition of lytic EBV replication was measured by real-time PCR in AKATA cells following IgG induction. Only MLS8554 was active against HSV1, HSV2 and MCMV (Table 2).

[8] = test system: Mouse CMV (MCMV) Smith strain; assay: Plaque assay, mouse CMV in MEFs; assay type: cell-based, mouse cytomegalovirus; details: plaque reduction; for EC50: MEFs, NA = Not active
From the text: as §1, with “Viruses and antiviral assays: A recombinant pp28-luciferase Towne HCMV strain expressing luciferase under the control of the UL99 (pp28) late promoter was reported to provide a highly-sensitive and reproducible reporter for drug screening^20. A GCV-resistant” for “A GCV-resistant”
as §4, §5

[9] = Human betaherpesvirus 5, combination experiment with Letermovir
[10] = Human betaherpesvirus 5, read-out: EC50—Towne (μM)
[11] = combination experiment with Letermovir
[12] = pp28 GCV-resistant Towne, luciferase, 72 hpi, read-out: EC50—GCVR Towne
[13] = pp28-luciferase Towne, HFFs, 72 hpi, read-out: EC50—Towne

Structure (SMILES)	stage of maximal activity during HCMV replication, in words [1]	add-on assay result, in words [1]	removal assay result, in words [1]	EC50 [2, 9]	viral DNA replication in cells, in words [3]	viral DNA yield in supernatant, in words [3]	EC50 [5, 10]	EC50 ([6]; Human betaherpesvirus 5, 240 h)	activity against HSV1, in words [7]	activity against MCMV, in words [8]	EC50 [2, 11]	EC50 [4, 12]	EC50 [5, 13]	EC50 [6]	activity against GCV-resistant HCMV, in words [4]	further results
CCN1CCN(CCCNC(=O)c2ccc3c(c2)sc2nc(-c4ccc(OC)cc4)cn23)CC1 [NFU1827, N-[3-(4-ethylpiperazin-1-yl)propyl]-4-(4-methoxyphenyl)-7-thia-2,5-diazatricyclo [6.4.0.02,6] dodeca-1(8),3,5,9,11-pentaene-10-carboxamide]	immediate early-early	lost its ability to inhibit HCMV	significant HCMV suppression	0.69 ± 0.07 µM	significantly reduced	significantly reduced	0.85 ± 0.1 µM	1210 ± 100 nM	no activity	no activity						EC50 ([4]; Human betaherpesvirus 5, read-out: EC50—GCVR Towne (μM)): 0.84 ± 0.1 µM
Nc1c(S(=O)(=O)c2cccs2)c2nc3ccccc3nc2n1Cc1ccccc1 [MLS8091]	early-late stage	overlapped with that of GCV	showed earlier effects		higher than that achieved with GCV	not significantly different from GCV			no activity	no activity	0.13 ± 0.05 µM	0.26 ± 0.02 µM	0.39 µM	330 nM		
CCc1ccc(NC(=O)[C@H](Cc2c[nH]c3ccccc23)NC(=O)[C@@H]2Cc3ccccc3CN2)cc1 [MLS8554]	immediate early-early	activity was significantly reduced	near complete		reduced	reduced			active	active	0.14 ± 0.02 µM	0.17 µM	0.64 ± 0.1 µM	340 nM	active	anti-HCMV activity, in words ([5]; all the HCMV strains used): active; EC50 ([7]; Vero cells, NA = Not active, read-out: EC50—HSV1-C1): 1780 ± 200 nM; EC50 [8]: 11.7 ± 2 µM
CC(C)NC(=O)C1CCN(C(=O)c2cc3sccc3n2Cc2ccc(Cl)cc2)CC1 [NCGC2955, 1-(4-(4-chlorobenzyl)-4H-thieno[3,2-b]pyrrole-5-carbonyl)-N-isopropylpiperidine-4-carboxamide]	early-late stage	overlapped with GCV	longer activity than GCV	3.19 ± 0.17 µM	modest	modest	4.61 ± 1.4 µM	1180 ± 200 nM							inhibited	inhibition of luciferase activity, in words ([5]; compound after infection, MOI of 1 PFU/cell, 72 hpi): did not show a full dose response; EC50 ([8]; Murid betaherpesvirus 1): 1 µM
